From patent publication US8153397B2 (priority 1993, dated 2012)
“Also recorded” adds a separate entry of the source.

Target: BoNT/A LC (Clostridium botulinum, UniProt P0DPI0)
Format: biochemical

Chain of BoNT/A LC (P0DPI0 3-448, added parts left off): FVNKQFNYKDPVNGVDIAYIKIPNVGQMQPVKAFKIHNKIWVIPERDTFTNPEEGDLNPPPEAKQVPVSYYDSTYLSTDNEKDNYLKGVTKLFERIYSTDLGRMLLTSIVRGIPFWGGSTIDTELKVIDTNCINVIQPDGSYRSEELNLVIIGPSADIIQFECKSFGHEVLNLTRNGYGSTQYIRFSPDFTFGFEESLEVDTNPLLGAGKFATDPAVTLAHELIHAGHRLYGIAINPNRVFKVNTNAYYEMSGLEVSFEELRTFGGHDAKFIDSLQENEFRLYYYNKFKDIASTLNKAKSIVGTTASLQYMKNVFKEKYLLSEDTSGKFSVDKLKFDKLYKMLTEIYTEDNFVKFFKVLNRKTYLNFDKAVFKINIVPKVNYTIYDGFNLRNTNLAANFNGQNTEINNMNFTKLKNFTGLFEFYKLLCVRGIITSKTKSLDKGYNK

SMILES	effect on truncation and fragmentation of the LC
O=C(O)CN(CCN(CC(=O)O)CC(=O)O)CC(=O)O [EDTA]	failed to protect; also recorded: little effect on proteolysis
c1ccc(CN(CCN(Cc2ccccn2)Cc2ccccn2)Cc2ccccn2)nc1 [TPEN]	largely protected; also recorded: significantly reduced the rate of conversion of IA to IB
